Data published in PMC5964550 (Contrast Media & Molecular Imaging, 2018).
One block for each compound: values may come before it.

Key:
[1] = tested on: OATP2B1 (SLCO2B1); design: method as in earlier work; conditions: in vitro; cited from earlier work
[2] = tested on: P-gp at the canalicular membrane; design: method as in PMID 12576431; conditions: humans; cited from earlier work
[3] = tested on: OATP1B1 (SLCO1B1); design: method as in earlier work; conditions: in vitro; cited from earlier work
[4] = tested on: OATP1B3 (SLCO1B3); design: method as in earlier work; conditions: in vitro; cited from earlier work
[5] = rat, iv
[6] = [11C]metoclopramide plasma kinetics and metabolism in rats (radio-HPLC); format: in vivo; conditions: rat
Excerpt: […]. […] […].

[7] = tested on: human P-gp; design: method as in PMID 17962372, PMID 15502009; conditions: cited from earlier work
[8] = cited from earlier work
[9] = tested on: rodent P-gp; design: method as in PMID 17962372, PMID 15502009; conditions: cited from earlier work
[10] = tested on: cytochrome P450 2D6 (CYP2D6); conditions: cited from earlier work
[11] = tested on: P-gp; conditions: mice, cited from earlier work

Structure (SMILES): COc1cc2c(cc1OC)CN(CCc1ccc(NC(=O)c3cc(OC)c(OC)cc3NC(=O)c3cnc4ccccc4c3)cc1)CC2 [tariquidar]
inhibitor of OATP2B1 [1]: inhibitor | effect on liver exposure to [99mTc]sestamibi [2]: enhance | inhibitor of OATP1B1 [3]: not | inhibitor of OATP1B3 [4]: not

AUCliver (area under the time-activity curve of radioactivity in the liver, 0 to 30 min) ([5]; male, Wistar, in vivo, 3 mg/kg): 42.9 ± 13.8 SUV·min | effect of P-gp inhibition on liver AUC ([5]; not told, 8 mg/kg): did not significantly impact | increase in AUCplasma, pharmacologic dose vs tracer dose ([6]; in vivo): 2.1 fold | proportion of parent [11C]metoclopramide in plasma, pharmacologic dose vs tracer dose ([6]; metoclopramide 3 mg/kg, calculated from ref 14): higher | impact of P-gp inhibition on plasma clearance and metabolism ([6]; not told, 8 mg/kg): did not impact
Structure (SMILES): CCN(CC)CCNC(=O)c1cc(Cl)c(N)cc1O[11CH3] [[^11C]metoclopramide]

Structure (SMILES): CCN(CC)CCNC(=O)c1cc(Cl)c(N)cc1OC [metoclopramide]
substrate of human P-gp [7]: substrate | excreted unchanged in urine ([8]; after intravenous administration): 19% | lower plasma clearance in hepatic impairment (liver cirrhosis) ([8]; liver cirrhosis): 50% | substrate of rodent P-gp [9]: substrate | substrate of CYP2D6 [10]: substrate | influence of P-gp deficiency on metoclopramide PK ([11]; 3 mg/kg, over 5 hours): no influence | effect of P-gp deficiency on brain distribution [11]: enhance | impact of P-gp deficiency on plasma pharmacokinetics [11]: no or negligible impact
